Legend:
GLUTag cells = assay: GLP-1 secretion from control-transduced or untransduced GLUTag cells; type: cell-based, murine
Description: (§1) GLUTag cells were maintained in Dulbecco’s Modified Eagle Medium (DMEM) supplemented with 10% fetal bovine serum and 1% penicillin–streptomycin in a humidified incubator at 37 °C and 5% CO2. For adenovirus transduction, GLUTag cells were seeded into poly-D-lysine coated 96-well plates or 4-chamber slides. The next day, cells were transduced with adenoviruses (100–1250 viral particles per cell at time of seeding) as indicated. After 24–30 h, adenovirus-containing media was changed to serum-free growth media for overnight serum starvation. The following day, GLUTag cells were used for cAMP or calcium signaling assays, GLP-1 secretion assays, or immunostaining and imaging.
GLUTag cells were seeded into poly-D-lysine-coated 96-well plates and transduced with adenovirus as specified above and then tested for GLP-1 secretion. Medium was removed and cells were washed two times with GLP-1 secretion buffer (138 mM NaCl, 4.5 mM KCl, 4.2 mM NaHCO3, 2.5 mM CaCl2, 1.2 mM MgCl2, 10 mM HEPES, 1 mM glucose, and 0.1% bovine serum albumin, pH 7.4). Cells were stimulated for 2 h with indicated treatments diluted in GLP-1 secretion buffer for a total volume of 200 µL/well at 37 °C and 5% CO2. Plates were then centrifuged at 300× g for 1 min at 4 °C, and 75 µL of the supernatant was removed and frozen at −80 °C until subsequent GLP-1 quantification. Total GLP-1 was quantified using the Meso Scale Discovery Total GLP-1 V-PLEX kit (Rockville, MD, USA; K1503PD) according to manufacturer’s instructions. For PTX treatment conditions, cells were pretreated with 100 ng/mL PTX overnight. For experiments with YM-254890, cells were pretreated for 15 min at 37 °C and 5% CO2.

hGPR17L-V96M = biological target: T1, hGPR17L-V96M (Homo sapiens, UniProt Q13304, V96M); assay: Endpoint cAMP in GLUTag cells expressing hGPR17L-V96M; type: cell-based
T1 construct: host or cells: GLUTag cells, adenoviral transduction
Description: as §1
(§2) Endpoint cAMP measurements were conducted as follows. GLUTag cells were seeded into poly-D-lysine-coated 96-well plates and transduced with adenovirus as specified above and then tested for cAMP signaling. Medium was removed and cells were washed with cAMP stimulation buffer (Hanks’ balanced salt solution (HBSS), 20 mM HEPES, pH 7.4) and then incubated in cAMP stimulation buffer for 30 min at 37 °C and 5% CO2. Cells were then treated for 30 min with agonist and forskolin in the presence of 500 µM IBMX at 37 °C and 5% CO2. Stimulation buffer was then decanted, and cAMP lysis buffer (50 mM HEPES, 10 mM CaCl2, 0.35% Triton X-100, and 500 µM IBMX) was added and shaken at 700 rpm for 1 h. Lysate was transferred to a 384-well plate, and the cAMP levels were quantified using the Cisbio HTRF cAMP (Gi kit; Revvity, Waltham, MA, USA) according to the manufacturer’s protocol.

hGPR17L = hGPR17L (Homo sapiens, UniProt Q13304); assay: Endpoint cAMP (HTRF) in GLUTag cells expressing hGPR17L; type: cell-based; set-up: host or cells: GLUTag cells (murine enteroendocrine line), adenoviral transduction; conditions: for Predicted (LS) mean diff.: Fig 2B, Forskolin
Description: as §1, §2

[1] = 10 µM forskolin, GLUTag hGPR17L

Chain of hGPR17L (Q13304 whole entry): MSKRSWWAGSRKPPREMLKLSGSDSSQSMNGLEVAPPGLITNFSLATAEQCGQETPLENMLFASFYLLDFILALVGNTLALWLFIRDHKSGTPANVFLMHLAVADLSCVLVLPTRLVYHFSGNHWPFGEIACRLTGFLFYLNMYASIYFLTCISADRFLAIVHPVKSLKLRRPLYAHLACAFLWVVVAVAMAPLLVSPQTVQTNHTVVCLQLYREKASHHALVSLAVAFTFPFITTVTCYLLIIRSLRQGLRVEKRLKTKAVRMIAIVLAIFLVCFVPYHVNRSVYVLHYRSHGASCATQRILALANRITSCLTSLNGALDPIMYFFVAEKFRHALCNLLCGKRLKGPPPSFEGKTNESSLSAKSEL
T1 sequence (Q13304 whole entry V96M): as the sequence (Q13304 whole entry) above, with V96M counted along it

O=C(O)CCc1c(C(=O)O)[nH]c2cc(Cl)cc(Cl)c12 [MDL29,951]
effect on F/I-stimulated GLP-1 secretion (GLUTag cells; 100 nM MDL29,951, control-transduced cells): no effect
effect on GLP-1 secretion under basal conditions (GLUTag cells; 100 nM or 100 µM MDL29,951, control-transduced): no effect
effect on F/I-stimulated GLP-1 secretion (GLUTag cells; 100 µM MDL29,951, control adenovirus): no effect
effect on forskolin-stimulated cAMP (hGPR17L-V96M; 10 µM forskolin, GLUTag hGPR17L-V96M): no significant effect
Mean Diff. (Tukey's multiple comparisons test), cAMP, Row 10 vs. Row 11 (hGPR17L-V96M; hGPR17L-V96M (200), log [MDL29,951] (M) -4.0 vs. Vehicle, Forskolin stimulation, Figure 4B): -6.053
Mean Diff. (Tukey's multiple comparisons test), cAMP, Row 9 vs. Row 11 (hGPR17L-V96M; hGPR17L-V96M (200), log [MDL29,951] (M) -4.6 vs. Vehicle, Forskolin stimulation, Figure 4B): -5.593
Mean Diff. (Tukey's multiple comparisons test), cAMP, Row 8 vs. Row 11 (hGPR17L-V96M; hGPR17L-V96M (200), log [MDL29,951] (M) -5.2 vs. Vehicle, Forskolin stimulation, Figure 4B): -7.097
Mean Diff. (Tukey's multiple comparisons test), cAMP, Row 7 vs. Row 11 (hGPR17L-V96M; hGPR17L-V96M (200), log [MDL29,951] (M) -5.8 vs. Vehicle, Forskolin stimulation, Figure 4B): -12.44
Mean Diff. (Tukey's multiple comparisons test), cAMP, Row 6 vs. Row 11 (hGPR17L-V96M; hGPR17L-V96M (200), log [MDL29,951] (M) -6.4 vs. Vehicle, Forskolin stimulation, Figure 4B): -8.68
Mean Diff. (Tukey's multiple comparisons test), cAMP, Row 5 vs. Row 11 (hGPR17L-V96M; hGPR17L-V96M (200), log [MDL29,951] (M) -7.0 vs. Vehicle, Forskolin stimulation, Figure 4B): -6.907
Mean Diff. (Tukey's multiple comparisons test), cAMP, Row 4 vs. Row 11 (hGPR17L-V96M; hGPR17L-V96M (200), log [MDL29,951] (M) -7.6 vs. Vehicle, Forskolin stimulation, Figure 4B): -4.737
Mean Diff. (Tukey's multiple comparisons test), cAMP, Row 3 vs. Row 11 (hGPR17L-V96M; hGPR17L-V96M (200), log [MDL29,951] (M) -8.2 vs. Vehicle, Forskolin stimulation, Figure 4B): -3.133
Mean Diff. (Tukey's multiple comparisons test), cAMP, Row 2 vs. Row 11 (hGPR17L-V96M; hGPR17L-V96M (200), log [MDL29,951] (M) -8.8 vs. Vehicle, Forskolin stimulation, Figure 4B): 3.127
Mean Diff. (Tukey's multiple comparisons test), cAMP, Row 1 vs. Row 11 (hGPR17L-V96M; hGPR17L-V96M (200), log [MDL29,951] (M) -9.4 vs. Vehicle, Forskolin stimulation, Figure 4B): -1.35
effect on forskolin-stimulated cAMP upon treatment with Gq inhibitor YM-254890 (hGPR17L; 100 nM YM-254890, 10 µM forskolin): inhibited
inhibition of forskolin-stimulated cAMP in the presence of PTX (hGPR17L; 100 ng/mL PTX, 10 µM forskolin): unable to inhibit
IC50 (hGPR17L; 10 µM forskolin, 500 µM IBMX, GLUTag hGPR17L, read-out: IC50, inhibition of forskolin-stimulated cAMP): 0.029 µM
pEC50, reversal of inhibition of forskolin-stimulated cAMP (hGPR17L; [1]): 4.94 ± 0.09
pIC50, inhibition of forskolin-stimulated cAMP (hGPR17L; [1]): 7.54 ± 0.11
EC50 (hGPR17L; 10 µM forskolin, GLUTag hGPR17L, read-out: EC50, reversal of inhibition of forskolin-stimulated cAMP at higher concentrations): 12 µM
Predicted (LS) mean diff. (hGPR17L; log [MDL29,951] (M) -4.0 vs. Vehicle, +100 nM YM-254890): -29.51
Predicted (LS) mean diff. (hGPR17L; log [MDL29,951] (M) -4.0 vs. Vehicle, +100 ng/mL PTX): 28.26
Predicted (LS) mean diff. (hGPR17L; log [MDL29,951] (M) -4.0 vs. Vehicle, +Vehicle): -12.1
Predicted (LS) mean diff. (hGPR17L; log [MDL29,951] (M) -4.6 vs. Vehicle, +100 nM YM-254890): -35.09
Predicted (LS) mean diff. (hGPR17L; log [MDL29,951] (M) -4.6 vs. Vehicle, +100 ng/mL PTX): 20.2
Predicted (LS) mean diff. (hGPR17L; log [MDL29,951] (M) -4.6 vs. Vehicle, +Vehicle): -15.6
Predicted (LS) mean diff. (hGPR17L; log [MDL29,951] (M) -5.2 vs. Vehicle, +100 nM YM-254890): -39.39
Predicted (LS) mean diff. (hGPR17L; log [MDL29,951] (M) -5.2 vs. Vehicle, +100 ng/mL PTX): 8.85
Predicted (LS) mean diff. (hGPR17L; log [MDL29,951] (M) -5.2 vs. Vehicle, +Vehicle): -22.36
Predicted (LS) mean diff. (hGPR17L; log [MDL29,951] (M) -5.8 vs. Vehicle, +100 nM YM-254890): -44.26
Predicted (LS) mean diff. (hGPR17L; log [MDL29,951] (M) -5.8 vs. Vehicle, +100 ng/mL PTX): -1.585
Predicted (LS) mean diff. (hGPR17L; log [MDL29,951] (M) -5.8 vs. Vehicle, +Vehicle): -32.92
Predicted (LS) mean diff. (hGPR17L; log [MDL29,951] (M) -6.4 vs. Vehicle, +100 nM YM-254890): -39.29
Predicted (LS) mean diff. (hGPR17L; log [MDL29,951] (M) -6.4 vs. Vehicle, +100 ng/mL PTX): -7.715
Predicted (LS) mean diff. (hGPR17L; log [MDL29,951] (M) -6.4 vs. Vehicle, +Vehicle): -33.45
Predicted (LS) mean diff. (hGPR17L; log [MDL29,951] (M) -7.0 vs. Vehicle, +100 nM YM-254890): -30.32
Predicted (LS) mean diff. (hGPR17L; log [MDL29,951] (M) -7.0 vs. Vehicle, +100 ng/mL PTX): -2.207

From PMC11762167, “G Protein-Coupled Receptor 17 Inhibits Glucagon-like Peptide-1 Secretion via a Gi/o-Dependent Mechanism in Enteroendocrine Cells” (Biomolecules, 2024)
